Experimental data published in US6407265B2, “Tin polyoxaalkanecarboxylates and compositions containing them” (priority 1998, dated 2002).
In brackets after ≈: the same amount, converted by molar mass.

How the values were obtained:
WiDr (colon carcinoma) = assay type: cell-based, human; conditions: in vitro, WiDr colon carcinoma cell line
EVSA-T (mammary cancer) = assay type: cell-based, human; conditions: in vitro, EVSA-T mammary cancer cell line
Description: (§1) The ID50 inhibition doses in ng/ml of the tested compounds are given in the table as well as those for some known reference compounds.

IGROV (ovarian cancer) = assay type: cell-based, human; conditions: in vitro, IGROV ovarian cancer cell line
M19 MEL (melanoma) = assay type: cell-based, human; conditions: in vitro, M19 MEL melanoma cell line
MCF-7 (mammary cancer) = assay type: cell-based, human; conditions: in vitro, MCF-7 mammary cancer cell line
Description: as §1

[1] = test system: H226 (non small cell lung cancer); assay type: cell-based, human; conditions: in vitro, H226 non small cell lung cancer cell line
A 498 (renal cancer) = assay type: cell-based, human; conditions: in vitro, A 498 renal cancer cell line
[2] = Stability in the presence of water (117Sn NMR); assay type: physicochemical; conditions: CD3CD2OD solution, increasing amounts of D2O added, resonance regularly slightly shifted
Description: The stability in the presence of water of four compounds, 6, 8, 9 and 12, was determined.

## bis{di-n-butyl-[4,7,10,13,16,19-hexaoxadicyclo[16.4.0]dicosa-1,3(20),21-triene-1-carboxylato]tin}oxide [Compound 4]
WiDr (colon carcinoma)
  ID50 inhibition dose WiDr: 0.239 µg/mL
EVSA-T (mammary cancer)
  ID50 inhibition dose EVSA-T: 0.046 µg/mL
IGROV (ovarian cancer)
  ID50 inhibition dose IGROV: 0.082 µg/mL
M19 MEL (melanoma)
  ID50 inhibition dose M19: 0.068 µg/mL
MCF-7 (mammary cancer)
  ID50 inhibition dose MCF-7: 0.036 µg/mL
[1]
  ID50 inhibition dose H226: 0.073 µg/mL
A 498 (renal cancer)
  ID50 inhibition dose A498: 0.126 µg/mL

## di-n-butyltin bis (3,6,9-trioxadecanoate) [Compound 14]
WiDr (colon carcinoma)
  ID50 inhibition dose WiDr: 0.495 µg/mL
EVSA-T (mammary cancer)
  ID50 inhibition dose EVSA-T: 0.066 µg/mL
IGROV (ovarian cancer)
  ID50 inhibition dose IGROV: 0.178 µg/mL
M19 MEL (melanoma)
  ID50 inhibition dose M19: 0.167 µg/mL
MCF-7 (mammary cancer)
  ID50 inhibition dose MCF-7: 0.086 µg/mL
[1]
  ID50 inhibition dose H226: 0.28 µg/mL
A 498 (renal cancer)
  ID50 inhibition dose A498: 0.145 µg/mL

## CCC[CH2][Sn]([CH2]CCC)([O]C(=O)COCCOC)[O]C(=O)COCCOC [Compound 10, di-n-butyltin bis(3,6-diheptanoate)]
WiDr (colon carcinoma)
  ID50 inhibition dose WiDr: 0.379 µg/mL
EVSA-T (mammary cancer)
  ID50 inhibition dose EVSA-T: 0.062 µg/mL
IGROV (ovarian cancer)
  ID50 inhibition dose IGROV: 0.128 µg/mL
M19 MEL (melanoma)
  ID50 inhibition dose M19: 0.115 µg/mL
MCF-7 (mammary cancer)
  ID50 inhibition dose MCF-7: 0.06 µg/mL
[1]
  ID50 inhibition dose H226: 0.161 µg/mL
A 498 (renal cancer)
  ID50 inhibition dose A498: 0.134 µg/mL

## CCC[CH2][Sn]([CH2]CCC)([CH2]CCC)[O]C(=O)COCCOC [Compound 9, tri-n-butyltin 3,6-diheptanoate]
WiDr (colon carcinoma)
  ID50 inhibition dose WiDr: 0.082 µg/mL
EVSA-T (mammary cancer)
  ID50 inhibition dose EVSA-T: 0.04 µg/mL
IGROV (ovarian cancer)
  ID50 inhibition dose IGROV: 0.084 µg/mL
M19 MEL (melanoma)
  ID50 inhibition dose M19: 0.09 µg/mL
MCF-7 (mammary cancer)
  ID50 inhibition dose MCF-7: 0.032 µg/mL
[1]
  ID50 inhibition dose H226: 0.061 µg/mL
A 498 (renal cancer)
  ID50 inhibition dose A498: 0.153 µg/mL
[2]
  Stability in the presence of water: single resonance

## bis[di-n-butyl(3,6-dioxaheptanoato)tin]oxide [Compound 11]
WiDr (colon carcinoma)
  ID50 inhibition dose WiDr: 0.006 µg/mL
EVSA-T (mammary cancer)
  ID50 inhibition dose EVSA-T: <0.003 µg/mL
IGROV (ovarian cancer)
  ID50 inhibition dose IGROV: <0.003 µg/mL
M19 MEL (melanoma)
  ID50 inhibition dose M19: <0.003 µg/mL
MCF-7 (mammary cancer)
  ID50 inhibition dose MCF-7: <0.003 µg/mL
[1]
  ID50 inhibition dose H226: 0.005 µg/mL
A 498 (renal cancer)
  ID50 inhibition dose A498: <0.003 µg/mL

## bis[di-n-butyl(3,6,9-trioxadecanoato)tin]oxide [Compound 15]
WiDr (colon carcinoma)
  ID50 inhibition dose WiDr: 0.003 µg/mL
EVSA-T (mammary cancer)
  ID50 inhibition dose EVSA-T: <0.003 µg/mL
IGROV (ovarian cancer)
  ID50 inhibition dose IGROV: <0.003 µg/mL
M19 MEL (melanoma)
  ID50 inhibition dose M19: <0.003 µg/mL
MCF-7 (mammary cancer)
  ID50 inhibition dose MCF-7: <0.003 µg/mL
[1]
  ID50 inhibition dose H226: <0.003 µg/mL
A 498 (renal cancer)
  ID50 inhibition dose A498: <0.003 µg/mL

## O=C([O][Sn]([c]1ccccc1)([c]1ccccc1)[c]1ccccc1)c1ccc2c(c1)OCCOCCOCCOCCOCCO2 [Compound 1, triphenyltin 4,7,10,13,16,19-hexaoxadicyclo[16.4.0]dicosa-1,3 (20),21-triene-1-carboxylate]
WiDr (colon carcinoma)
  ID50 inhibition dose WiDr: 0.013 µg/mL
EVSA-T (mammary cancer)
  ID50 inhibition dose EVSA-T: 0.012 µg/mL
IGROV (ovarian cancer)
  ID50 inhibition dose IGROV: 0.03 µg/mL
M19 MEL (melanoma)
  ID50 inhibition dose M19: 0.016 µg/mL
MCF-7 (mammary cancer)
  ID50 inhibition dose MCF-7: 0.015 µg/mL
[1]
  ID50 inhibition dose H226: 0.037 µg/mL
A 498 (renal cancer)
  ID50 inhibition dose A498: 0.043 µg/mL

## CN(Cc1cnc2nc(N)nc(N)c2n1)c1ccc(C(=O)N[C@@H](CCC(=O)O)C(=O)O)cc1 [methotrexate, reference compound]
WiDr (colon carcinoma)
  ID50 inhibition dose WiDr: <0.003 µg/mL
EVSA-T (mammary cancer)
  ID50 inhibition dose EVSA-T: 0.005 µg/mL (≈ 0.011 µM)
IGROV (ovarian cancer)
  ID50 inhibition dose IGROV: 0.007 µg/mL (≈ 0.0154 µM)
M19 MEL (melanoma)
  ID50 inhibition dose M19: 0.023 µg/mL (≈ 0.0506 µM)
MCF-7 (mammary cancer)
  ID50 inhibition dose MCF-7: 0.018 µg/mL (≈ 0.0396 µM)
[1]
  ID50 inhibition dose H226: 2.287 µg/mL (≈ 5.03 µM)
A 498 (renal cancer)
  ID50 inhibition dose A498: 0.037 µg/mL (≈ 0.0814 µM)

## CCC[CH2][Sn]([CH2]CCC)([O]C(=O)c1ccc2c(c1)OCCOCCOCCOCCO2)[O]C(=O)c1ccc2c(c1)OCCOCCOCCOCCO2 [Compound 7, di-n-butyltin bis[4,7,10,13,16-pentaoxadicyclo[13.4.0]cosa-1,3(17),18-triene-1-carboxylate]]
WiDr (colon carcinoma)
  ID50 inhibition dose WiDr: 0.332 µg/mL
EVSA-T (mammary cancer)
  ID50 inhibition dose EVSA-T: 0.237 µg/mL
IGROV (ovarian cancer)
  ID50 inhibition dose IGROV: 0.321 µg/mL
M19 MEL (melanoma)
  ID50 inhibition dose M19: 0.286 µg/mL
MCF-7 (mammary cancer)
  ID50 inhibition dose MCF-7: 0.273 µg/mL
[1]
  ID50 inhibition dose H226: 0.854 µg/mL
A 498 (renal cancer)
  ID50 inhibition dose A498: 0.049 µg/mL

## COc1cccc2c1C(=O)c1c(O)c3c(c(O)c1C2=O)C[C@@](O)(C(=O)CO)C[C@@H]3O[C@H]1C[C@H](N)[C@H](O)[C@H](C)O1 [doxorubicin, reference compound]
WiDr (colon carcinoma)
  ID50 inhibition dose WiDr: 0.011 µg/mL (≈ 0.0202 µM)
EVSA-T (mammary cancer)
  ID50 inhibition dose EVSA-T: 0.008 µg/mL (≈ 0.0147 µM)
IGROV (ovarian cancer)
  ID50 inhibition dose IGROV: 0.06 µg/mL (≈ 0.11 µM)
M19 MEL (melanoma)
  ID50 inhibition dose M19: 0.016 µg/mL (≈ 0.0294 µM)
MCF-7 (mammary cancer)
  ID50 inhibition dose MCF-7: 0.01 µg/mL (≈ 0.0184 µM)
[1]
  ID50 inhibition dose H226: 0.199 µg/mL (≈ 0.366 µM)
A 498 (renal cancer)
  ID50 inhibition dose A498: 0.09 µg/mL (≈ 0.166 µM)
